This note sets out measurements from US20070167474A1, “Use of opioid receptor antagonist compounds for the prevention and/or treatment of diseases associated with the target calcineurin” (priority 2004, published 2007).

Where a name gives a salt, the structure may show the parent alone.

For assay [1], the system named is Interleukin-2 (IL-2) production on spleen cells in the MLR. As to the kind of experiment: Measurement of interleukin-2 production in MLR (mixed lymphocyte reaction). In kind it is cell-based, mice. Particulars: 48 h culture, ELISA. The protocol: Measurement of Interleukin-2 Production in MLR (Mixed Lymphocyte Reaction)
Measurement of interleukin-2 production in MLR was performed according to the described procedure (Gaveriaux-Ruff et al., J. Pharmacol. Exper. Ther. 298, 1193, 2001).
Splenocytes from mice were cultured with allogeneic stimulators (mitomycin treated BALB/c spleen cells).
For orientation: ELISA stands for enzyme-linked immunosorbent assay.

A further assay concerns the target calcineurin (Homo sapiens, UniProt Q08209). As to the kind of experiment: Calcineurin inhibition assay. In kind it is biochemical. Particulars: compound at a concentration of 20 μM. The procedure:
Calcineurin Inhibition Assays
Calcineurin inhibition assay was performed according to a described procedure (R. Baumgrass et al., J. Biol. Chem. 276, 47914, 2001).
Calcineurin inhibition was measured in a concentration range of 1-50 μM of the test compound at optimal Ca^2+ and calmoduline concentrations. The calcineurin/compound mixtures were equilibrated in the assay buffer (40 mM Tris-HCl, pH 7.5, 100 mM NaCl, 6 mM MgCl2, 0.5 mM ditiothreitol, 1 mM CaCl2, 0.1 mg/ml bovine serum albumin) at 22° C. for 30 min. Calcineurin activity was referenced to the assay lacking the test compounds. The data were computed with the SigmaPlot program.

Chain of calcineurin (P63098 2-170, other chains not shown): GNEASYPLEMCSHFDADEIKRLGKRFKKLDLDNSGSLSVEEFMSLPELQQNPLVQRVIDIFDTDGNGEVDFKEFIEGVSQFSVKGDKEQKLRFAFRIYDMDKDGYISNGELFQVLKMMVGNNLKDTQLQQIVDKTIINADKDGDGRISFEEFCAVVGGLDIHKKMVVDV

With `CCOC12Cc3c([nH]c4ccccc34)C3(C)Oc4c(O)ccc5c4C31CCN(CC1CC1)C2C5` (stereo not drawn) [HS 378, 17-(Cyclopropylmethyl)-6,7-dehydro-4,5α-epoxy-14ethoxy-3-hydroxy-5-methyl-6,7-2′,3′-indolomorphinan Hydrochloride], the IL-2 was 49 ± 7 pg/mL in assay [1] (2 μM compound), 31 ± 3 pg/mL in assay [1] (10 μM compound) and 22 ± 2 pg/mL in assay [1] (20 μM compound).

As for `Cl.Oc1ccc2c3c1OC1c4[nH]c5ccccc5c4CC4(OCc5ccccc5-c5ccccc5)C(C2)N(CC2CC2)CCC314` (stereo not drawn) [HS 882, 17-(Cyclopropylmethyl)-6,7-didehydro-4,5α-epoxy-14β-[(2-phenylbenzyl)oxy]indolo[2′,3′:6,7]morphinan-3-ol Hydrochloride], on calcineurin, the “Calcineurin activity (% of control)” value is listed as 49 % of control.

On to `CC(C)(C)c1ccc(COC23Cc4c([nH]c5ccccc45)C4Oc5c(O)ccc6c5C42CCN(CC2CC2)C3C6)cc1.Cl` (stereo not drawn) [HS 884, 14β-[(4-tert.-Butylbenzyl)oxy]-17-(cyclopropylmethyl)-6,7-didehydro-4,5α-epoxyindolo[2′,3′:6,7]morphinan-3-ol Hydrochloride], for which the “Calcineurin activity (% of control)” value at calcineurin is listed as 65 % of control.

Take `Oc1ccc2c3c1OC1c4[nH]c5ccccc5c4CC4(OCCCc5ccccc5)C(C2)N(CC2CC2)CCC314` (stereo not drawn) [HS 894, 17-(Cyclopropylmethyl)-6,7-didehydro-4,5α-epoxy-14β-[(3-phenylpropyl)oxy]indolo[2′,3′:6,7]morphinan-3-ol]: on calcineurin, the “Calcineurin activity (% of control)” value is 30 % of control.

Regarding `Oc1ccc2c3c1O[C@H]1c4[nH]c5ccccc5c4C[C@@]4(O)[C@@H](C2)N(CC2CC2)CC[C@]314` [Naltrindole, reference compound], the results for the IL-2 in assay [1] (3 μM compound), in assay [1] (10 μM compound) and in assay [1] (30 μM compound) were 66 ± 18 pg/mL, 29 ± 6 pg/mL and 19 ± 5 pg/mL, respectively.
